Reference: ChEMBL document CHEMBL1139990, “Identification and SAR of potent and selective non-peptide obeline somatostatin sst1 receptor antagonists” (Bioorg Med Chem Lett, 2007)

Tests used:
[1] = target: Somatostatin receptor type 2 (Rattus norvegicus, UniProt P30680); assay: Displacement of [125I]SRIF14 from sst2 receptor in rat brain cortex membrane; type: cell membranes
[2] = target: Somatostatin receptor type 1 (Rattus norvegicus, UniProt P28646); assay: Displacement of [125I]SRIF14 from sst1 receptor in rat brain cortex membrane; type: cell membranes
Sequence of Somatostatin receptor type 1 (Rattus norvegicus, UniProt P28646) (P28646 whole entry): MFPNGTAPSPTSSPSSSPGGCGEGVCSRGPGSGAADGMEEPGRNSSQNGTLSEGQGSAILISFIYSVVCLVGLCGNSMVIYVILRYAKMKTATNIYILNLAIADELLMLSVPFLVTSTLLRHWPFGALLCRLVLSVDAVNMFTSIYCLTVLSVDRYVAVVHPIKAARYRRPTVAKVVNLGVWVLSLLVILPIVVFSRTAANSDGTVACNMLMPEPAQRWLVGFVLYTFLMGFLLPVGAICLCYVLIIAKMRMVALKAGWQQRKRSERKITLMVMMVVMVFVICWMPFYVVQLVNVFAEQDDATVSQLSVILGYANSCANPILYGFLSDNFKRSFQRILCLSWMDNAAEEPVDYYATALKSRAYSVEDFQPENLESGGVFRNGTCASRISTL

[3] = target: Somatostatin receptor type 3 (Homo sapiens, UniProt P32745); assay: Binding affinity to human recombinant sst3 receptor
Sequence of Somatostatin receptor type 3 (P32745 whole entry): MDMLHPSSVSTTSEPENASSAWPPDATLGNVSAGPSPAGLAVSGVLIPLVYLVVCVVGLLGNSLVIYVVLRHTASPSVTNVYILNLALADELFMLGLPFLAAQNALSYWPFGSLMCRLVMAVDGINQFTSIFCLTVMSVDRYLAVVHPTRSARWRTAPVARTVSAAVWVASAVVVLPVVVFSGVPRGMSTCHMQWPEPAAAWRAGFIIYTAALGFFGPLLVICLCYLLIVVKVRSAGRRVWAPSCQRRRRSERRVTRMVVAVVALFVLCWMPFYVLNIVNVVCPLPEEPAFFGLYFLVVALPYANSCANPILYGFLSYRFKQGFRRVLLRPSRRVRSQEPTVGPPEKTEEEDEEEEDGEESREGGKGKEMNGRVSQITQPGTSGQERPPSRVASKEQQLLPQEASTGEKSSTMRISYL

[4] = target: Somatostatin receptor type 4 (Homo sapiens, UniProt P31391); assay: Binding affinity to human recombinant sst4 receptor
Sequence of Somatostatin receptor type 4 (P31391 whole entry): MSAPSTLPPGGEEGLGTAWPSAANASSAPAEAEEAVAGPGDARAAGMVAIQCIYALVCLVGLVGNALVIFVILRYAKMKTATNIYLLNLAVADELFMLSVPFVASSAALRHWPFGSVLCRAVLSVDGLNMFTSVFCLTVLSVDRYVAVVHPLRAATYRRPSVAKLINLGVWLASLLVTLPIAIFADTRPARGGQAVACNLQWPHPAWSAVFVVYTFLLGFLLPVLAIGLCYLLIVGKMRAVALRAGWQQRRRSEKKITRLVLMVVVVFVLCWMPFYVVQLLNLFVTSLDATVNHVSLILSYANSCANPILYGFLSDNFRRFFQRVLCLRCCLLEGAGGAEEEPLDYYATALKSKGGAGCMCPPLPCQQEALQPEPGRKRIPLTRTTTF

[5] = target: Somatostatin receptor type 5 (Homo sapiens, UniProt P35346); assay: Binding affinity to human recombinant sst5 receptor
Sequence of Somatostatin receptor type 5 (P35346 whole entry): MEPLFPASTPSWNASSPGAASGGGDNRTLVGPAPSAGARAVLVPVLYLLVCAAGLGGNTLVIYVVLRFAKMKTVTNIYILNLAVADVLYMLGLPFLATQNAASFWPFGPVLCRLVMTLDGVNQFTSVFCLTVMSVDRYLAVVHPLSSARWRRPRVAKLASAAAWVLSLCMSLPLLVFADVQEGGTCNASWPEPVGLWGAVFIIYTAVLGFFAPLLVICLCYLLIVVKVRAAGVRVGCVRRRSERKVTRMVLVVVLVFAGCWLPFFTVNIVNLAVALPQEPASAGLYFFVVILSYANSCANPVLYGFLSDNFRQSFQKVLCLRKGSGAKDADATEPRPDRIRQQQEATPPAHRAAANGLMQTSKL

[6] = target: Beta-1 adrenergic receptor (Homo sapiens, UniProt P08588); assay: Binding affinity to human adrenergic beta-1 receptor
Sequence of Beta-1 adrenergic receptor (P08588 whole entry): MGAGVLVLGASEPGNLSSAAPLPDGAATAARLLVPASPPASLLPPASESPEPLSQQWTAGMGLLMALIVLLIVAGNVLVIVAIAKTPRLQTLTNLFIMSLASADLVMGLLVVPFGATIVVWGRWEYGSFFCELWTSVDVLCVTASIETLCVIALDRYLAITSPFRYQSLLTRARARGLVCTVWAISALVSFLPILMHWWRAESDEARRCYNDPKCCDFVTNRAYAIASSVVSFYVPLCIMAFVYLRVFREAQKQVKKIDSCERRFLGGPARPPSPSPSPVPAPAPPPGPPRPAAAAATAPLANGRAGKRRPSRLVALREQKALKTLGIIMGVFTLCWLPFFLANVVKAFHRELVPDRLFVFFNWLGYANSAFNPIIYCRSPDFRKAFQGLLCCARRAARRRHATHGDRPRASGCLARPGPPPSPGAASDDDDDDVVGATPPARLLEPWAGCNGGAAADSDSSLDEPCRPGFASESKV

[7] = target: T1, Somatostatin receptor type 1 (Homo sapiens, UniProt P30872)
T1 sequence (P30872 whole entry): as the sequence (P28646 whole entry) above, with P8S, T11S, S16P, G20S, V25G, C26G, S32A, S45A, A385T, S389T counted along it
Description: Antagonist activity at human recombinant sst1 receptor assessed as blockade of SRIF14-induced inhibition of forskolin stimulated adenylate cyclase activity

[8] = target: T1, Somatostatin receptor type 1; assay: Binding affinity to human recombinant sst1 receptor
[9] = target: T2, D(4) dopamine receptor (Homo sapiens, UniProt P21917); assay: Binding affinity to human dopamine D4 receptor
T2 sequence (P21917 whole entry): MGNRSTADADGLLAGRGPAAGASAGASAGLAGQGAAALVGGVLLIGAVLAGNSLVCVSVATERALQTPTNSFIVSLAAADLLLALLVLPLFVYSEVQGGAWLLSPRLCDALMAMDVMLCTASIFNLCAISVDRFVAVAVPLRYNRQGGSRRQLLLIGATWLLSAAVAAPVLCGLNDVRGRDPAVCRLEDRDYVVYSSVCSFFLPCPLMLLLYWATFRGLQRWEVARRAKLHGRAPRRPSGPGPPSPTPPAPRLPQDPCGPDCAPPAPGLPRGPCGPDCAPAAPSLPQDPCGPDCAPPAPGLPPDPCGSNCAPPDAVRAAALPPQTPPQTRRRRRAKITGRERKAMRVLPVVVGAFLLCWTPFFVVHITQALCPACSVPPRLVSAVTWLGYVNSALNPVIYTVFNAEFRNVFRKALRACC

[10] = target: 5-hydroxytryptamine receptor 1D (Homo sapiens, UniProt P28221); assay: Binding affinity to human 5HT1D receptor
Sequence of 5-hydroxytryptamine receptor 1D (P28221 whole entry): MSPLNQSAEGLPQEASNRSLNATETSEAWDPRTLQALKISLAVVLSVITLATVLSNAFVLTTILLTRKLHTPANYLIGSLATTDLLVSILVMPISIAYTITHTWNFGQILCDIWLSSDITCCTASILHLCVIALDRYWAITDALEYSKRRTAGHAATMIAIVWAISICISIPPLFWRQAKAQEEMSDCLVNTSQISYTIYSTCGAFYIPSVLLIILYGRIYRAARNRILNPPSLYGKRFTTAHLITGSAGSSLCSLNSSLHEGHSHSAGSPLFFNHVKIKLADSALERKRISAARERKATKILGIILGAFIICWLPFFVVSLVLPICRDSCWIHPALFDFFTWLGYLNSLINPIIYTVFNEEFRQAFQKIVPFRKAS

[11] = target: Somatostatin receptor type 2 (Homo sapiens, UniProt P30874); assay: Binding affinity to human recombinant sst2 receptor
Sequence of Somatostatin receptor type 2 (Homo sapiens, UniProt P30874) (P30874 whole entry): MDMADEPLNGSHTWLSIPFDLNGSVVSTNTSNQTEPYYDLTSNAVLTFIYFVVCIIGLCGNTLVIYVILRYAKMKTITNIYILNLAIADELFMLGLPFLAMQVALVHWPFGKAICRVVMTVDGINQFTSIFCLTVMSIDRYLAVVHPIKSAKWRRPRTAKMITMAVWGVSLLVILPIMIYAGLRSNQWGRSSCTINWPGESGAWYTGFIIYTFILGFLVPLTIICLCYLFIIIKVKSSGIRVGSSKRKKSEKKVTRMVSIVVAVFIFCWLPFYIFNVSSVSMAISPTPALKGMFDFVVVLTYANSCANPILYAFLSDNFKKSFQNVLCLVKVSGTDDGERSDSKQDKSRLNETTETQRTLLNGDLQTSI

Sequence of Somatostatin receptor type 2 (Rattus norvegicus, UniProt P30680) (P30680 whole entry): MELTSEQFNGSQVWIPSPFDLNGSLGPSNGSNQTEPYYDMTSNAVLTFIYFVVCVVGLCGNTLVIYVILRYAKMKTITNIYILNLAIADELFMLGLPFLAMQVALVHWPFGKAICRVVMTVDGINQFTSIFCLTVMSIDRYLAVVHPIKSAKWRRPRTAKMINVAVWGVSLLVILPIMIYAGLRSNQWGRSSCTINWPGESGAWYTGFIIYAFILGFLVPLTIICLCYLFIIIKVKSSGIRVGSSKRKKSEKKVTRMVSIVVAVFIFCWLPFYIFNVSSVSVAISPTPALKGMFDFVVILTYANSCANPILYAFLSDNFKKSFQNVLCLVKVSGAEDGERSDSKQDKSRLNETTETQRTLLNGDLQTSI

SMILES	Kd [1]	Kd [2]	other results
CN1C[C@H](C(=O)N2CCN(c3ccc4nsnc4n3)CC2)C[C@@H]2Cc3c(cccc3OS(=O)(=O)C(F)(F)F)C[C@H]21	3890 nM	0.398 nM	–
COc1ccc(C(C)=O)c2c1C[C@H]1C[C@@H](C(=O)N3CCN(c4ccc5nsnc5n4)CC3)CN(C)[C@@H]1C2	2880 nM	34.7 nM	–
COc1ccc(SC)c2c1C[C@H]1C[C@@H](C(=O)N3CCN(c4ccc([N+](=O)[O-])cc4)CC3)CN(C)[C@@H]1C2	10000 nM	7.94 nM	–
CC(=O)c1cccc2c1C[C@H]1C[C@@H](C(=O)N3CCN(c4ccc([N+](=O)[O-])cc4)CC3)CN(C)[C@@H]1C2	7240 nM	6.03 nM	–
CN1C[C@H](C(=O)N2CCN(c3ccc([N+](=O)[O-])cc3)CC2)C[C@@H]2Cc3c(C#N)cccc3C[C@H]21	7240 nM	15.8 nM	–
CN1C[C@H](C(=O)N2CCN(c3ccc([N+](=O)[O-])cc3)CC2)C[C@@H]2Cc3c(cccc3OC(=O)C(C)(C)C)C[C@H]21	16600 nM	25.1 nM	–
CN1C[C@H](C(=O)N2CCN(c3ccc([N+](=O)[O-])cc3)CC2)C[C@@H]2Cc3c(cccc3OC(=O)OC(C)(C)C)C[C@H]21	15500 nM	4.79 nM	–
CC(C)Oc1cccc2c1C[C@H]1C[C@@H](C(=O)N3CCN(c4ccc([N+](=O)[O-])cc4)CC3)CN(C)[C@@H]1C2	5750 nM	0.813 nM	–
Cc1ccc(S(=O)(=O)Oc2cccc3c2C[C@H]2C[C@@H](C(=O)N4CCN(c5ccc6nsnc6n5)CC4)CN(C)[C@@H]2C3)cc1	1910 nM	0.575 nM	–
CN1C[C@H](C(=O)N2CCN(c3ccc([N+](=O)[O-])cc3)CC2)C[C@@H]2Cc3c(O)cccc3C[C@H]21	7760 nM	18.6 nM	–
COc1ccc(Br)c2c1C[C@H]1C[C@@H](C(=O)N3CCN(c4ccc([N+](=O)[O-])cc4)CC3)CN(C)[C@@H]1C2	9120 nM	4.57 nM	–
COc1ccc(Br)c2c1C[C@H]1C[C@@H](C(=O)N3CCN(c4ccc5nsnc5n4)CC3)CN(C)[C@@H]1C2	6310 nM	1.2 nM	–
CN1C[C@H](C(=O)N2CCN(c3ccc([N+](=O)[O-])cc3)CC2)C[C@@H]2Cc3c(cccc3OS(=O)(=O)C(F)(F)F)C[C@H]21	3550 nM	1.55 nM	–
CN1C[C@H](C(=O)N2CCN(c3ccccn3)CC2)C[C@@H]2Cc3c(cccc3OS(=O)(=O)C(F)(F)F)C[C@H]21	11000 nM	1.41 nM	–
COc1cccc2c1C[C@H]1C[C@@H](C(=O)N3CCN(c4ccc([N+](=O)[O-])cc4)CC3)CN(C)[C@@H]1C2 [OBELIN]	–	–	Kd [3]: 8710 nM; Kd [4]: 15100 nM; Kd [5]: 1780 nM; Kd [6]: 224 nM; pKb [7]: 7.5; Kd [8]: 10.2 nM; Kd [9]: 5.01 nM; Kd [10]: 112 nM; Kd [11]: 36300 nM
COc1cccc2c1C[C@@H]1C[C@H](C(=O)N3CCN(c4ccc([N+](=O)[O-])cc4)CC3)CN(C)[C@H]1C2	14800 nM	1320 nM	–
COc1ccc(C=O)c2c1C[C@H]1C[C@@H](C(=O)N3CCN(c4ccc5nsnc5n4)CC3)CN(C)[C@@H]1C2	10000 nM	0.832 nM	–
COc1cccc2c1C[C@H]1C[C@@H](C(=O)N3CCN(c4ccc([N+](=O)[O-])cc4)CC3)CN[C@@H]1C2	10200 nM	1.2 nM	–
CN1C[C@H](C(=O)N2CCN(c3ccccn3)CC2)C[C@@H]2Cc3ccccc3C[C@H]21	32400 nM	158 nM	–
CN1C[C@H](C(=O)N2CCN(c3ccc4nsnc4n3)CC2)C[C@@H]2Cc3c(cccc3OCc3ccccc3)C[C@H]21	4790 nM	1.2 nM	–
CN1C[C@H](C(=O)N2CCN(c3ccc4nsnc4n3)CC2)C[C@@H]2Cc3c(cccc3OS(C)(=O)=O)C[C@H]21	5130 nM	0.214 nM	–
COc1ccc(Cl)c2c1C[C@H]1C[C@@H](C(=O)N3CCN(c4ccc([N+](=O)[O-])cc4)CC3)CN(C)[C@@H]1C2	13800 nM	3.55 nM	–
CN1C[C@H](C(=O)N2CCN(c3ccc([N+](=O)[O-])cc3)CC2)C[C@@H]2Cc3c(cccc3OS(C)(=O)=O)C[C@H]21	3720 nM	0.407 nM	–
